According to US12221656B2, “Methods and materials for assessing homologous recombination deficiency” (Myriad Genetics, Inc., priority 2014, dated 2025):

System: triple negative breast cancer (TNBC)
Experiment: Neoadjuvant cisplatin cohort, pathologic response in triple negative breast cancer
Assay type: in vivo, human
Conditions: for Pathologic complete response (pCR = yes), % response / Pathologic response (PR = yes), % response: secondary analysis, n=51
Protocol: Analysis of a neoadjuvant TNBC cohort treated with cisplatin was examined relative to the relationship between all three HRD scores and response. All p values were from logistic regression models with response to cisplatin as the dependent variable.
HR Deficiency status was determined for 62 of the 70 samples (70 individual patients) received from a cisplatin cohort (8 had insufficient tumors for analysis). Of these, 31 (50%) were HR deficient, 22 (35%) were non-HR deficient, and 9 (15%) were undetermined. FIG. 15 provides a histogram showing the distribution of HRD scores in the cohort. […] were considered to have high HRD (see also, Example 5). […] Pathologic complete response (pCR), which is associated with long-term survival, was defined as a residual cancer burden (RBC) of 0 and observed in 11/59 (19%) samples. […] These overall response rates correlated with monotherapy expectations.
Statistical analyses followed a predefined Statistical Analysis Plan (SAP), which included primary, secondary, and BRCA wild-type subset analyses.

SMILES: N.N.[Cl][Pt][Cl] [cisplatin]
- Pathologic complete response (pCR = yes), % response (BRCA Mutant): 3 (33.3%)
- Pathologic response (PR = yes), % response (BRCA Mutant): 5 (55.6%)
- Pathologic complete response (pCR = yes), % response (BRCA Non-mutant): 5 (11.9%)
- Pathologic response (PR = yes), % response (BRCA Non-mutant): 13 (31.0%)
- Pathologic complete response (pCR), residual cancer burden of 0 (whole cisplatin cohort, 11/59 samples): 19%
- Pathologic response (PR), residual cancer burden of 0 or 1 (whole cisplatin cohort, 22/59 samples): 37%
